In ChEMBL document CHEMBL1124011, “Retinobenzoic acids. 1. Structure-activity relationships of aromatic amides with retinoidal activity” (1988) one finds EC50, Ratio and ED50 data, which are given here for 45 compounds.

The subject of test [1] is Panel leukemia (Carcinoma cell lines). Kind of test: Effective dose for differentiation -inducing activity against human promyelocytic leukemia cells. The settings on record: read-out: ED50 (the source's name). Type of test: functional.
Test [2] can be described thus: Ratio of the ED50 of compound to that of ED50 of retinoic acid, expressed as relative activity. It counts as functional.
Test [3] has as its system Panel leukemia (Carcinoma cell lines). Kind of test: Effective dose for differentiation-inducing activity against human promyelocytic leukemia cells. It counts as functional, cell-based.

Active and inactive are the calls of the source. The rule behind the calls is not given here.

As to `CC(C)(C)c1cc(NC(=O)c2ccc(C(=O)O)cc2)cc(C(C)(C)C)c1`, in test [1], the EC50 worked out at 0.036 µM. In test [2], the Ratio came out at 0.15.
In the case of `CC1(C)CCC(C)(C)c2cc(C(=O)Nc3ccc(C(=O)O)cc3)ccc21`, the EC50 in test [1] amounted to 0.00034 µM. Further, the Ratio in test [2] came to 7.2.
For the compound `CC(C)(C)c1ccc(C(=O)Nc2ccc(C(=O)O)cc2)cc1`, the EC50 in test [1] was > 10 µM. For the same compound, in test [2], the Ratio was < 0.001.
For `O=C(O)c1ccc(C(=O)Nc2ccc3c(c2)C2CCC3CC2)cc1` the same measures were > 10 µM and < 0.001.
Regarding `CCc1cccc(NC(=O)c2ccc(C(=O)O)cc2)c1`, the ED50 result in test [3] is “inactive”.
`CC(C)c1ccc(C(=O)Nc2ccc(C(=O)O)cc2)cc1C(C)C`: the EC50 in test [1] was 0.068 µM. Further, the Ratio in test [2] is 0.04.
For the compound `CC1(C)CCOc2c(Cl)cc(C(=O)Nc3ccc(C(=O)O)cc3)cc21`, the EC50 in test [1] amounted to 0.075 µM. Moreover, the Ratio in test [2] is 0.037.
For `CC1(C)CCC(C)(C)c2cc(NC(=O)c3ccc(C(=O)O)cc3)c(N)cc21` the same measures were 0.56 µM and 0.011.
For `CC1(C)CCSc2ccc(NC(=O)c3ccc(C(=O)O)cc3)cc21`, in that order: 0.073 µM and 0.051.
Take `CC(C)c1cccc(C(C)C)c1NC(=O)c1ccc(C(=O)O)cc1`: the ED50 result in test [3] is “inactive”.
For the compound `CC(C)(C)c1ccc(NC(=O)c2ccc(C(=O)O)cc2)cc1`, the EC50 in test [1] was > 10 µM. Moreover, the Ratio in test [2] is < 0.001.
Regarding `CN(C(=O)c1ccc2c(c1)C(C)(C)CCC2(C)C)c1ccc(C(=O)O)cc1`, in test [1], the EC50 was > 1 µM. Besides, the Ratio in test [2] is < 0.0001.
Consider `O=C(O)c1ccc(C(=O)Nc2cccc3c2CCCC3)cc1`, for which the ED50 result in test [3] is “inactive”.
Same read-out and setting: to `O=C(O)c1ccc(C(=O)Nc2cccc3ccccc23)cc1` belongs “inactive”.
In the case of `CC(C)c1cccc(NC(=O)c2ccc(C(=O)O)cc2)c1`, in test [1], the EC50 was 0.68 µM. Further, in test [2], the Ratio amounted to 1.3.
`CC1(C)CCC(C)(C)c2cc(NC(=O)c3ccc(C(=O)O)cc3)c(Br)cc21`: the EC50 in test [1] was > 1 µM. Moreover, the Ratio in test [2] is < 0.0001.
With `CCc1ccc(NC(=O)c2ccc(C(=O)O)cc2)cc1CC`, the EC50 in test [1] amounted to 0.26 µM. In addition, the Ratio in test [2] came to 0.0077.
`O=C(O)c1ccc(C(=O)Nc2cccc(Br)c2)cc1`: the ED50 entry in test [3] was “inactive”.
On the same count and under the same terms, the result for `CC(C)c1ccc(C(C)C)c(NC(=O)c2ccc(C(=O)O)cc2)c1` reads “inactive”.
For the compound `CC1(C)CCC(C)(C)c2cc(NC(=O)c3ccc(C(=O)O)cc3)ccc21` [TAMIBAROTENE], the EC50 in test [1] was found to be 0.00079 µM. Also, in test [2], the Ratio came to 3.5.
Regarding `CC(C)(C)c1cccc(C(=O)Nc2ccc(C(=O)O)cc2)c1`, the EC50 in test [1] was > 10 µM. Besides, the Ratio in test [2] was < 0.001.
With `O=C(O)c1ccc(C(=O)Nc2ccc3ccccc3c2)cc1`, the ED50 result in test [3] is “inactive”. The Ratio in test [2] is 3.5.
Consider `CC1(C)CCOc2ccc(NC(=O)c3ccc(C(=O)O)cc3)cc21`, for which the EC50 in test [1] is > 1 µM. Besides, the Ratio in test [2] is < 0.0001.
Turning to `CC1(C)CCS(=O)(=O)c2ccc(C(=O)Nc3ccc(C(=O)O)cc3)cc21`, in test [3], the ED50 result is “inactive”.
As for `CC(C)(C)c1cccc(NC(=O)c2ccc(C(=O)O)cc2)c1`, the EC50 in test [1] came out at 0.7 µM. Moreover, the Ratio in test [2] turned out to be 3.2.
In the case of `O=C(O)c1ccc(C(=O)Nc2ccccc2)cc1`, the ED50 result in test [3] is “inactive”.
Regarding `Cc1cc2c(cc1NC(=O)c1ccc(C(=O)O)cc1)C(C)(C)CCC2(C)C`, the EC50 in test [1] stood at 0.35 µM. Also, in test [2], the Ratio was 0.006.
With `CC(C)c1ccccc1NC(=O)c1ccc(C(=O)O)cc1`, the ED50 result in test [3] was “inactive”.
With `CN(C(=O)c1ccc(C(=O)O)cc1)c1ccc2c(c1)C(C)(C)CCC2(C)C`, the EC50 in test [1] is > 1 µM. For the same compound, in test [2], the Ratio was < 0.0001.
For `CC1(C)CCC(C)(C)c2cc([N+](=O)[O-])c(NC(=O)c3ccc(C(=O)O)cc3)cc21`, the EC50 in test [1] is > 10 µM. The Ratio in test [2] was < 0.001.
On to `CC(C)(C)c1cc(C(=O)Nc2ccc(C(=O)O)cc2)cc(C(C)(C)C)c1`, for which the EC50 in test [1] was found to be 0.048 µM. For the same compound, the Ratio in test [2] is 0.056.
Take `CC1(C)CCC(C)(C)c2c(NC(=O)c3ccc(C(=O)O)cc3)cccc21`: the EC50 in test [1] was > 1 µM. For the same compound, the Ratio in test [2] is < 0.0001.
For `CC(C)c1ccc(NC(=O)c2ccc(C(=O)O)cc2)cc1C(C)C`, the EC50 in test [1] is 0.0021 µM. Besides, the Ratio in test [2] was found to be 1.4.
For `CC12CCC(C)(CC1)c1cc(NC(=O)c3ccc(C(=O)O)cc3)ccc12` the same measures were 0.068 µM and 0.059.
`CC(C)(C)c1cc(C(C)(C)C)c(NC(=O)c2ccc(C(=O)O)cc2)c(C(C)(C)C)c1`: the ED50 result in test [3] is “inactive”.
Turning to `O=C(O)c1ccc(NC(=O)c2ccccc2)cc1`, the ED50 entry in test [3] is “inactive”.
On to `O=C(O)c1ccc(C(=O)Nc2cccc(C3CCCCC3)c2)cc1`, for which the EC50 in test [1] is > 1 µM. Also, the Ratio in test [2] is < 0.0001.
For the compound `CC(C)c1ccc(NC(=O)c2ccc(C(=O)O)cc2)cc1`, the EC50 in test [1] amounted to 0.91 µM. For the same compound, the Ratio in test [2] was found to be 9.8.
For `CN(C)c1cccc(NC(=O)c2ccc(C(=O)O)cc2)c1`, the ED50 entry in test [3] is “inactive”.
For the compound `Cc1cccc(NC(=O)c2ccc(C(=O)O)cc2)c1`, the ED50 result in test [3] was “inactive”.
For `CC(C)c1ccc(NC(=O)c2ccc(C(=O)O)cc2)c(C(C)C)c1`, in test [3], the ED50 result is “inactive”.
Consider `CC(C)c1cc(NC(=O)c2ccc(C(=O)O)cc2)cc(C(C)C)c1`, for which the EC50 in test [1] is 0.038 µM. Also, the Ratio in test [2] worked out at 0.042.
In the case of `CC1(C)CCOc2ccc(C(=O)Nc3ccc(C(=O)O)cc3)cc21`, in test [1], the EC50 amounted to 0.8 µM. In test [2], the Ratio worked out at 0.0035.
Regarding `CC1=C(/C=C/C(C)=C/C=C/C(C)=C/C(=O)O)C(C)(C)CCC1` [TRETINOIN], the EC50 in test [1] came to 0.0024 µM. Besides, the Ratio in test [2] was found to be 1.
For `O=C(O)c1ccc(C(=O)Nc2cccc(-c3ccccc3)c2)cc1`, the ED50 result in test [3] was “inactive”.
